Laboratory results as given in patent publication US20240024520A1, “AUTONOMOUS KNOB DOMAIN PEPTIDES” (UCB BIOPHARMA SRL, priority 2020, published 2024).
Like-named read-outs stand apart in the source and are kept apart here. Bridge positions count the residues as written; N and C are the ends. Ends that are not written are not given here. Peptide text beside a SMILES is read from it. * marks the point of attachment. Palmitoyl = CCCCCCCCCCCCCCCC(=O)*

Assays:
[1] = test system: Classical pathway C5b deposition; assay: Classical pathway C5b (neo-epitope) deposition ELISA, SVAR kit; format: biochemical, human; conditions: chemFE peptides, Example 10; result in words
Description: (§1) To elucidate the functional consequences of the knob domain peptides binding to human C5, we performed complement activation assays using the SVAR complement activation ELISA which measured CP (Classical Pathway) and AP (Alternative Pathway) activation in human serum, through formation of the C5b neo-epitope. We also developed orthogonal ELISA assays which measured total complement and AP specific mediated C3b and MAC (Membrane Attack Complex) deposition. For all activation conditions, we also tracked C5a release via ELISA.
(§2) For the C5b ELISA, assays were run using the CP and AP Complement functional ELISA kits (SVAR), as per the manufacturer's protocol. For sample preparation: serum was diluted as per the respective protocol for the CP and AP assays. Titrations of peptides were prepared and allowed to incubate for 15 minutes at room temperature, prior to plating.
(§3) Functional activity of chemically derived knob domain peptides was confirmed in a complement activation ELISAs which measured inhibition of C5b neoepitope deposition.
(§4) Finally, we tested our constructs in AP and CP complement activation ELISAs, which measured C5b neoepitope deposition.
(§5) Complement ELISA: assays were run using the CP and AP Complement functional ELISA kits (SVAR, COMPL 300 RUO), as per the manufacturer's protocol. For sample preparation, serum was diluted as per the respective protocol for the CP and AP assays; serial dilutions of peptides were prepared and allowed to incubate with serum for 15 minutes at room temperature, prior to plating.

[2] = test system: Alternative pathway C5b deposition; assay: Alternative pathway C5b (neo-epitope) deposition ELISA, SVAR kit; format: biochemical, human; conditions: chemFE peptides, Example 10; result in words
Description: as §1, §2, §3, §4, §5

C5 = C5 (Homo sapiens, UniProt P01031); assay: Biacore multi-cycle kinetics on human C5; format: binding; conditions: for mean stoichiometric ratio: measured Rmax divided by theoretical Rmax; for binding to human C5: chemical knob domains and variants, result in words
Method: Binding of knob domain peptides to human C5 was measured by SPR, using a multi-cycle kinetics method as follows:
(§6) Kinetics were measured using a Biacore 8K (GE Healthcare) with a CM5 chip, which was prepared as follows: EDC/NHS was mixed at 1:1 ratio (flow rate, 10 μL/min; contact time, 30 seconds), human C5 protein at 1 μg/mL in pH 4.5 sodium-acetate buffer, were injected over flow cell one only (flow rate, 10 μL/min; contact time, 60 seconds). Final immobilization levels in the range of 2000-3000 response units (RU) were obtained, to yield theoretical Rmax values of ˜50-60 RU. Serial dilutions of peptide were prepared in HBS-EP buffer and injected (flow rate, 30 μL/min; contact time, 240 seconds; dissociation time, 6000 seconds). After each injection, the surface was regenerated with two sequential injections of 2M MgCl2 (flow rate, […]; contact time, 30 seconds). Binding to the reference surface was subtracted, and the data were fitted to a single site binding model, using Biacore evaluation software.

rabbit erythrocytes = assay: Alternative pathway haemolysis assay; format: cell-based; conditions: normal human sera; result in words
Method: (§7) Haemolysis assays: For AP, 50 μL of 24% normal human sera (Complement Technology), 50 of 20 mM MgEGTA (Complement Technology), and 48 μL of GVB0 buffer (0.1% gelatin, […], 145 mM NaCl, 0.025% NaN3, pH 7.3, Complement Technology) were aliquoted into a single well of a 96-well tissue culture plate (USA Scientific) then mixed with 2 μL of inhibitors serially diluted in DMSO. Following equilibration for 15 minutes at room temperature, 50 μL of rabbit erythrocytes (Complement Technology), at 2.5×10^7 per well, were added to the plates, which were then incubated at 37° C. for 30 minutes. Plates were centrifuged at 1,000×g for 3 min and 100 μL of supernatant was collected, transferred to another 96-well tissue culture treated plate, and absorbance was measured at 412 nm. For CP, […], 48 μL of GVB++ buffer (0.1% gelatin, 5 mM Veronal, 145 mM NaCl, 0.025% NaN3, pH 7.3 with 0.15 mM CaCl2 and 0.5 mM MgCl2, Complement Technology) and 2 μL of inhibitors serially diluted in DMSO were aliquoted into a single well and equilibrated as described. Next, 100 μL of antibody-sensitized sheep red blood cells (Complement Technology) at 5×10^7 per well were added to the plate, which was then incubated at 37° C. for 1 hour. Samples were subsequently processed as described.

[3] = test system: antibody-sensitized sheep red blood cells; assay: Classical pathway haemolysis assay; format: cell-based; conditions: normal human sera; result in words
Method: as §7

rat C5 protein = rat C5 protein (Rattus norvegicus, UniProt P08650); assay: Biacore kinetics on rat C5 (cross-reactivity); format: binding; conditions: SPR
Method: as §6, with “rat” for “human”, “ug/mL” for “μg/mL”

[4] = In vivo pharmacokinetics after intravenous bolus; conditions: rat, plasma; 1 mg/kg intravenous; male Sprague-Dawley rats; read-out: plasma clearance [C1p]
Method: Plasma pharmacokinetics was studied for each peptide in male Sprague-Dawley rats of a body weight between 324 and 425 g. Drug was administered intravenously via the tail vein. […] Blood samples were taken at 7 minutes, 15 minutes, 30 minutes, followed by 1, 2, 4, 8 and 24 hours. Blood was collected into Li Heparin tubes and spun to prepare plasma samples for bioanalysis. Bioanalytical data was analysed on an individual animal basis using Pharsight Phoenix 64 Build 8.1. Non-compartmental analysis was conducted and mean pharmacokinetic parameters for each drug calculated.

[5] = relative to unmodified peptide
[6] = read-out: mean Koff, multi-cycle kinetics, n = 3 experiments
[7] = read-out: mean Kon, multi-cycle kinetics, n = 3 experiments

C5, sequence (P01031 19-1676): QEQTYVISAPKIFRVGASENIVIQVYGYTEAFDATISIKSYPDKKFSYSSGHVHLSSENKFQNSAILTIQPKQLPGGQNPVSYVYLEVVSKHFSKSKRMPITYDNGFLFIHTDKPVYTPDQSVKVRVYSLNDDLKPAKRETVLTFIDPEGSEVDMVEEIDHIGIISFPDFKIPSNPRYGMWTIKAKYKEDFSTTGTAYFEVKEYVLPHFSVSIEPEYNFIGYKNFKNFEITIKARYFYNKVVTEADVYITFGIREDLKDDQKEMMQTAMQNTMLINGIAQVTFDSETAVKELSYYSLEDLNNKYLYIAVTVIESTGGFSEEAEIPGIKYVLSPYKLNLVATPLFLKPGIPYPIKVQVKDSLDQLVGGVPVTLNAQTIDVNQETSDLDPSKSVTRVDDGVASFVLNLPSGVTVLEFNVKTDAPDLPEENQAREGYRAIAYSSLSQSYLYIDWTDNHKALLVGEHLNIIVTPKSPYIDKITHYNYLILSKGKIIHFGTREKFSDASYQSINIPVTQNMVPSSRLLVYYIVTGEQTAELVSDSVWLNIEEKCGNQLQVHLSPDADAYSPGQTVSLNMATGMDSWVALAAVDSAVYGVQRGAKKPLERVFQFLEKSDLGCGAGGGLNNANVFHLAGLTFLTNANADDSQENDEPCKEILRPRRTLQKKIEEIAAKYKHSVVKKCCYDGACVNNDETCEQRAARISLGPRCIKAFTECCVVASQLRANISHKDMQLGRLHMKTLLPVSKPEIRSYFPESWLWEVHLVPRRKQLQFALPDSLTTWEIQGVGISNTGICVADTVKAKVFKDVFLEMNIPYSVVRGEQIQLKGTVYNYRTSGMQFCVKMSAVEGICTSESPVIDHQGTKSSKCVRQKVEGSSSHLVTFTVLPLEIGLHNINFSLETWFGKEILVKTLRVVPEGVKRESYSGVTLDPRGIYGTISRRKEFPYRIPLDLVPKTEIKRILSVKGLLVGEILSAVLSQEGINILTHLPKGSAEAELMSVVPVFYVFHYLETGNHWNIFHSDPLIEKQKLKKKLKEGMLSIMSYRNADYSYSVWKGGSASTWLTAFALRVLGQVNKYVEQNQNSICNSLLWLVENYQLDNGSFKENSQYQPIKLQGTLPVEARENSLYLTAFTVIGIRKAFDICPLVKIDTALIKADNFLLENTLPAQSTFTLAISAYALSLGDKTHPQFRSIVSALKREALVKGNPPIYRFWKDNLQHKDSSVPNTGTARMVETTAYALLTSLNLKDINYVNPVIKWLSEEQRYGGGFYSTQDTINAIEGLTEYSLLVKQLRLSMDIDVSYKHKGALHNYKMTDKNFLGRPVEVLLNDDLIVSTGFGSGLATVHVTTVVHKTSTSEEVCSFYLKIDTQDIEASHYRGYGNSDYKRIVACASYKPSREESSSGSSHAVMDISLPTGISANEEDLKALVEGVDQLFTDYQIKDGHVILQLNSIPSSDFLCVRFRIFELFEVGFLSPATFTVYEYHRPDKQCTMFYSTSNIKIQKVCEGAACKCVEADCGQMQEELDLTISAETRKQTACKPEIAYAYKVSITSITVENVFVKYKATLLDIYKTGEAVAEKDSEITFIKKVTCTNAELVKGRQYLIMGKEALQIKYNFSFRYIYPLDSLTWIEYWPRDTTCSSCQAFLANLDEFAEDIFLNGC
rat C5 protein, sequence (P08650 19-1681): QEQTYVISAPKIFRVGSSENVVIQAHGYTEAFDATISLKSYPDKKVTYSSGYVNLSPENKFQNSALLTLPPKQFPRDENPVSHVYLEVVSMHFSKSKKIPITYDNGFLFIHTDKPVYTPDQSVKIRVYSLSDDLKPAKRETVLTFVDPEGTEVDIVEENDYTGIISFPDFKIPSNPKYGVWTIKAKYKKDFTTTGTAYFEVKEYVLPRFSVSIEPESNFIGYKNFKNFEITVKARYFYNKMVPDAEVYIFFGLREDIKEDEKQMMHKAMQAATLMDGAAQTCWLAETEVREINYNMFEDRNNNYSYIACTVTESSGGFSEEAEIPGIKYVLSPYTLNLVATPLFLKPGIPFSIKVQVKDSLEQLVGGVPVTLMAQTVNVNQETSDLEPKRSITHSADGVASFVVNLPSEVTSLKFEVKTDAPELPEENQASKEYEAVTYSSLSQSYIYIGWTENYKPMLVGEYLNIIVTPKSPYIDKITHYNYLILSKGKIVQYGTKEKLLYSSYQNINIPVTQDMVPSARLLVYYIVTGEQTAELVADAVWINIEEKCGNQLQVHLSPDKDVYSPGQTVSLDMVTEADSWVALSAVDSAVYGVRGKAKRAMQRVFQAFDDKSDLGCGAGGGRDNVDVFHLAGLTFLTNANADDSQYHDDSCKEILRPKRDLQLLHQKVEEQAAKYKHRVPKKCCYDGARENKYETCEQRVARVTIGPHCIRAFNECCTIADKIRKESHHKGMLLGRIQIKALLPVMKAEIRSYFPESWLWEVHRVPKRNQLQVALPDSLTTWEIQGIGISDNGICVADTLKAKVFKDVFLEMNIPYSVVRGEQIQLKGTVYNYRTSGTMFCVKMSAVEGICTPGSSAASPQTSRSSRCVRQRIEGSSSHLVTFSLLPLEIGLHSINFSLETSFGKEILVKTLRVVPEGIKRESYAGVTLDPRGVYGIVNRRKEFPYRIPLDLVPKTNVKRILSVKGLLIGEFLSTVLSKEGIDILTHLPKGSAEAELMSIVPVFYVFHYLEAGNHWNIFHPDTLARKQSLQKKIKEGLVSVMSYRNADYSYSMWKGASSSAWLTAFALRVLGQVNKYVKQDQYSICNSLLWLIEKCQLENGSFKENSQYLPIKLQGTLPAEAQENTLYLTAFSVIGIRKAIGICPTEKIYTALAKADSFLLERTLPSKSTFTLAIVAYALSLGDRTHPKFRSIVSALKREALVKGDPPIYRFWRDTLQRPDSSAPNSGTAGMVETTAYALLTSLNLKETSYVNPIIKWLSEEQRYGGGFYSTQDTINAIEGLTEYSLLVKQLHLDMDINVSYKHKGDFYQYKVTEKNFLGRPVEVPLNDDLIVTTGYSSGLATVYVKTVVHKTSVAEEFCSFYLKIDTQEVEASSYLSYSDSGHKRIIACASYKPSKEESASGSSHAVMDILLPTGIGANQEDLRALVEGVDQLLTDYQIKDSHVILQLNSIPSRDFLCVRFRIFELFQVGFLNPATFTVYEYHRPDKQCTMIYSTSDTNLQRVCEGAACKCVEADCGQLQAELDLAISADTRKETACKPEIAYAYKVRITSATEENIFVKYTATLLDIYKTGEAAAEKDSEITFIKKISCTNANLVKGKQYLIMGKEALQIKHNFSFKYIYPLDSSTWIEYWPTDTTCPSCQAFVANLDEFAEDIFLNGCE

CC[C@H](C)[C@@H]1NC(=O)[C@H](C)NC(=O)[C@H](C(C)C)NC(=O)CNC(=O)[C@@H]2CSSC[C@@H](C(=O)NCC(=O)N[C@@H](Cc3c[nH]cn3)C(=O)N[C@@H](Cc3ccccc3)C(=O)N[C@@H](CC(C)C)C(=O)N[C@@H](CC(N)=O)C(=O)N[C@@H](CO)C(=O)NCC(=O)N3CCC[C@H]3C(=O)N[C@@H](CC(N)=O)C(=O)N[C@H](C(=O)N[C@@H](CO)C(=O)N3CCC[C@H]3C(=O)N[C@@H](Cc3ccc(O)cc3)C(=O)N[C@H](C(=O)N[C@@H](CO)C(=O)N[C@H](C(=O)O)[C@@H](C)O)C(C)C)[C@@H](C)CC)NC(=O)CNC(=O)[C@H](Cc3c[nH]c4ccccc34)NC(=O)[C@H](CCCNC(=N)N)NC(=O)CNC(=O)[C@H](CSSC[C@H](NC(=O)[C@@H](N)[C@@H](C)O)C(=O)N3CCC[C@H]3C(=O)N[C@@H](CCC(=O)O)C(=O)NCC(=O)N[C@@H](Cc3c[nH]c4ccccc34)C(=O)N[C@@H](CO)C(=O)N[C@@H](CCC(=O)O)C(=O)N2)NC(=O)[C@H](CCC(=O)O)NC(=O)[C@H](Cc2ccc(O)cc2)NC(=O)CNC(=O)[C@H](Cc2ccc(O)cc2)NC1=O [K92chemFE] (H-TCPEGWSECGVAIYGYECGRWGCGHFLNSGPNISPYVST-OH; disulfide 2-18, 9-23)
inhibition of CP, C5b deposition [1]: modest, dose dependent enhancement | inhibition of AP, C5b deposition [2]: partially inhibited | mean stoichiometric ratio (C5; n = 3 experiments): 0.40 | koff (C5; multi-cycle kinetics, n = 3 experiments, read-out: mean Koff): 0.000101 s⁻¹ | kon (C5; multi-cycle kinetics, n = 3 experiments, read-out: mean Kon): 283000 M⁻¹ s⁻¹ | inhibition of haemolysis, AP (rabbit erythrocytes): active solely in the AP-driven haemolysis assay

CSCC[C@@H]1NC(=O)[C@@H]2CCCN2C(=O)[C@@H](NC(=O)[C@@H]2CSSC[C@H](NC(=O)[C@@H](N)CO)C(=O)N3CCC[C@H]3C(=O)N[C@@H](CC(=O)O)C(=O)NCC(=O)N[C@@H](Cc3ccccc3)C(=O)N[C@@H](CO)C(=O)N[C@@H](Cc3ccc(O)cc3)C(=O)N[C@@H](CCCNC(=N)N)C(=O)N[C@@H](CO)C(=O)N[C@@H](Cc3c[nH]c4ccccc34)C(=O)N[C@@H](CC(=O)O)C(=O)N[C@@H](CC(=O)O)C(=O)N[C@@H](Cc3ccccc3)C(=O)N2)CSSC[C@@H](C(=O)N[C@@H](CC(C)C)C(=O)N[C@@H](C)C(=O)N2CCC[C@H]2C(=O)N[C@@H](CCCNC(=N)N)C(=O)N[C@@H](CC(N)=O)C(=O)O)NC(=O)[C@H](CCCNC(=N)N)NC(=O)CNC(=O)[C@H](C(C)C)NC1=O [K149chemFE] (H-SCPDGFSYRSWDDFCCPMVGRCLAPRN-OH; disulfide 2-15, 16-22 (inferred); N-terminus assumed)
inhibition of CP, C5b deposition [1]: non-functional, silent binder | inhibition of AP, C5b deposition [2]: non-functional, silent binder | binding to C5 (C5; after reduction and capping of cysteines with iodoacetamide (loss of disulphide bonds)): entirely abrogated binding | binding to human C5 (C5): equal affinity | mean stoichiometric ratio (C5; n = 3 experiments): 0.85 | Kd (C5; multi-cycle kinetics, n = 3 experiments, read-out: mean KD): 5.57 nM

GCPPGYKSGVDCSPGSECKWGCYAVDGRRYGGYGADSGVGS-OH (disulfide 2-18, 12-22) [K57chemFE]
inhibition of CP, C5b deposition [1]: potent and fully efficacious inhibitor | inhibition of AP, C5b deposition [2]: potent and fully efficacious inhibitor | mean stoichiometric ratio (C5; n = 3 experiments): 0.65 | koff (C5; [6]): 0.000579 s⁻¹ | kon (C5; [7]): 260000 M⁻¹ s⁻¹ | inhibition of haemolysis, CP [3]: potent and fully efficacious inhibitor | inhibition of haemolysis, AP (rabbit erythrocytes): potent and fully efficacious inhibitor | cross reactivity with rat C5 protein (rat C5 protein): specific for human C5

K8 chemFE cyclic: cyclic peptide from head-to-tail cyclisation of the K8chemFE knob domain (cyclo(VCPDGFNWGYGCAAGSSRFCTRHDWCCYDERADSHTYGFCTGNRV); also: disulphides formed by free energy method, pairing not given here)
binding to human C5 (C5): bound human C5 | inhibition of haemolysis, CP [3]: functionally active complement inhibitor | inhibition of haemolysis, AP (rabbit erythrocytes): functionally active complement inhibitor

Palmitoyl-GCPPGYKSGVDCSPGSECKWGCYAVDGRRYGGYGADSGVGS-OH (disulfide 2-18, 12-22) [K57 chemFE-Palmitoyl]
binding to human C5 (C5): unaffected | clearance [4]: 0.8 mL/min/kg | solubility [5]: reduced solubility

VCPDGFNWGYGCAAGSSRFCTRHDWCCYDERADSHTYGFCTGNRV-OH (disulfide 2-26, 12-40, 20-27) [K8chemFE]
inhibition of CP, C5b deposition [1]: partial inhibitor | inhibition of AP, C5b deposition [2]: partial inhibitor | mean stoichiometric ratio (C5; n = 3 experiments): 0.25 | koff (C5; [6]): 0.000385 s⁻¹ | kon (C5; [7]): 70500 M⁻¹ s⁻¹ | cross reactivity with rat C5 protein (rat C5 protein): tightly bound | cross reactivity with rat C5 protein (rat C5 protein; listed as K8chem): cross reactive
